Assay results as given in US12691118B2, “Allosteric agonists and positive allosteric modulators of Glucagon-like peptide 1 receptor” (University of the Sciences, priority 2019, dated 2026).
Entries after “also recorded” stand apart in the source; their conditions may differ. Ends that are not written are not given here.

What was measured:
human GLP-1R = target: T1, human GLP-1R (Homo sapiens, UniProt P43220); experiment: CRE luciferase reporter assay in HEK293 cells transiently expressing human GLP-1R; assay type: cell-based; conditions: for GLP-1R activity stimulated by GLP-1 in combination with compound vs GLP-1 alone: GLP-1 0.014 nM-145 nM
T1 construct: Flag (N); host or cells: HEK293 cells stably expressing CRE/CREB luciferase reporter (BPS Bioscience #60515)
Procedure: HEK293 cells stably expressing CRE/CREB Reporter (luciferase) were cultured in RPMI medium supplemented with 8% (v/v) fetal bovine serum, 2% (v/v) penicillin/streptomycin, and 100 μg/ml of Hygromycin B. Cells were maintained in an incubator at 37° C. with 5% CO2. Cells were seeded into 6-well cell culture plates one day before transfection. After overnight incubation, one well of cell was transiently transfected with 3.4 μg of human GLP-1R or empty vector, respectively, using lipofectamine 2000. After 4 hours of transfection, transfection medium was replaced by RPMI medium supplemented with 5% (v/v) fetal bovine serum and 2% (v/v) penicillin/streptomycin. After 24 hours of incubation, cells were trypsinized and seeded into 96 well cell culture plates (5.5× 10^4 cells per well) and maintained at 37° C. in 5% CO2 incubator for 24 hours. The cells were starved using RPMI with 0.5% sera. After 24 hours of starvation, the transfected cells were treated with compounds as indicated.
(§1) Compounds dissolved in 100% DMSO were diluted to indicated concentration in RPMI 1640 (0.5% DMSO included for all cell culture). After 4 hours of treatment, cells were harvested by cold luciferase cell culture lysis buffer and kept on shaker for 10 min at 4° C. Luciferase activity was measured using luciferin substrate and luminescence was read by Wallac 1420 multiplate reader. Luciferase activity of HEK293 reporting cells cultured using 0.5% DMSO and full RPMI medium was used as a vehicle control. Protein concentration of each well was determined by Bradford assay.
The concentration-dependent dose response curve was generated using Graph Pad Prism 6.0 for Mac (GraphPad Software Inc., San Diego, CA). The curves were fitted based on sigmoidal dose response with the bottom parameter being kept 0. The EC50 value was calculated from Prism. The statistical difference between different groups was analyzed by 2-way ANOVA module in Prism.

[1] = Compound stability (statement); assay type: physicochemical
INS-1 832/13 cells = experiment: Glucose stimulated insulin production in INS-1 832/13 cells; assay type: cell-based, rat; conditions: 16.7 mM glucose
Procedure: INS-1 832/13 cells were cultured in RPMI 1640 supplemented with 2 mM L-glutamine, 1 mM sodium pyruvate, 10% FBS, 10 mM HEPES, 100 units/ml penicillin, 100 μg/ml streptomycin, and 50 μM β-mercaptoethanol. Cells were maintained in an incubator at 37° C. with 5% CO2. To determine the effect of GLP-1R agonist Ia and PAM Ib on insulin production, INS-1 cells were seeded onto 24 well plates. After 48 hours of incubation, cells were washed twice with 200 μl of Krebs-Ringer Bicarbonate (KRB) buffer and starved for 2 hours in fresh KRB supplemented with 0.1% serum. […] After 20 minutes, the supernatant was collected, centrifuged at 1000 rpm for 5 min at 4° C., and aliquoted and stored at −20° C. These samples were used to determine insulin concentration using insulin detection kit ELISA following the manual.

[2] = target: T2, Vasoactive Intestinal Polypeptide Receptor 1 (VIPR1) (Homo sapiens, UniProt P32241); experiment: Non-specific effect on VIPR1, luciferase assay in HEK293 cells overexpressing VIPR1; assay type: cell-based; conditions: Ib 23.5 μM; VIPR peptide agonist 0.014 nM-145 nM
T2 construct: host or cells: HEK293 cells stably expressing CRE/CREB luciferase reporter
T2 sequence (P32241 31-457): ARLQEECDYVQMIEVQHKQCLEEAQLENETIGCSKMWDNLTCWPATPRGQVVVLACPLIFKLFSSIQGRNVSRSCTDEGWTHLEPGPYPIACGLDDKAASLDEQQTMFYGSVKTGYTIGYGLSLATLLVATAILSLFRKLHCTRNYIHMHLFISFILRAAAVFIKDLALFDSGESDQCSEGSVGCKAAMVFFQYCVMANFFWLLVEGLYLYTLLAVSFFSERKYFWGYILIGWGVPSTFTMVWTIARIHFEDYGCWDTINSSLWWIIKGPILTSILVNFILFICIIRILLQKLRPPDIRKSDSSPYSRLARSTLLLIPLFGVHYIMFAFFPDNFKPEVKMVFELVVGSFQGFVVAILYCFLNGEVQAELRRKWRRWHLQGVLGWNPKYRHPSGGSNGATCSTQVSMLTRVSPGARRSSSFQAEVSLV
Procedure: as §1
HEK293 cells stably expressing CRE/CREB Reporter (luciferase) were cultured in RPMI 1640 supplemented with 8% (v/v) fetal bovine serum, 2% (v/v) penicillin/streptomycin, and 100 μg/ml of Hygromycin B. Cells were maintained at 37° C. with 5% CO2. Cells were seeded into 6-well cell culture plates one day before transfection. After overnight incubation, cells were transiently transfected with 3.4 μg of VIPR1, using Lipofectamine 2000. After 4 hours of transfection, medium was replaced by RPMI supplemented with 5% (v/v) fetal bovine serum. After 24 hours of incubation, cells were trypsinized and seeded into 96 well cell culture plates (5.5×10^4 cells per well) and maintained at 37° C. in 5% CO2 for 24 hours. After 24 hours of incubation, the cells were starved with RPMI with 0.5% sera. […]

T1 sequence (P43220 24-463): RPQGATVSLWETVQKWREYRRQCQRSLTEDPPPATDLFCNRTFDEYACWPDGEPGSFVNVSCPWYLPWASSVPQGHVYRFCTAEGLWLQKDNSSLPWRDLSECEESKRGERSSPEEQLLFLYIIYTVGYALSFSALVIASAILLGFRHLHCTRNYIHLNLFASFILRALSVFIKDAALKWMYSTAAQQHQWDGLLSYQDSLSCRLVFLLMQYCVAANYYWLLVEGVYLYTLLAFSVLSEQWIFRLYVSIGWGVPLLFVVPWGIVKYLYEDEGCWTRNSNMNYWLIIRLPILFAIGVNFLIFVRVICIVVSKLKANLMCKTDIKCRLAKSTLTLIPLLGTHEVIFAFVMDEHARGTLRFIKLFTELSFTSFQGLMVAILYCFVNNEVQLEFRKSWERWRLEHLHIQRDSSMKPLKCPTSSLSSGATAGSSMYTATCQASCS

**Q.** Which “GLP-1R activity stimulated by GLP-1 in combination with compound vs GLP-1 alone” value (human GLP-1R; Ic 71 μM) does the source give for CC1CCCc2c1sc1nc(S)n(N)c(=O)c21 (centres unmarked) [Compound Ic, 3-amino-2-mercapto-8-methyl-5,6,7,8-tetrahydrobenzo[4,5]thieno[2,3-d]pyrimidin-4(3H)-one] here?
**A.** The value was “significantly increased”.

**Q.** And the “potency as PAM (statement)” value (human GLP-1R; compared with Ib)?
**A.** The value was “less potent”.

**Q.** And the “stability (statement)” value [1]?
**A.** The value was “unstable”.

**Q.** For “GLP-1: GLP-1R peptide agonist (Sigma #9416), endogenous ligand of GLP-1R (HAEGTFTSDVSSYLEGQAAKEFIAWLVKGR; ends and bridges not checked; UniProt P01275 98-127, looked up) [reference compound]”, which “insulin production compared to vehicle control” value (INS-1 832/13 cells; GLP-1 0.18 μM, both time points) is on record?
**A.** Its value is “more than two-fold”.

**Q.** Which results are given for CCOC(=O)c1c(N)sc2c1CCCC2C (centres unmarked) [Compound Ib, ethyl 2-amino-7-methyl-4,5,6,7-tetrahydrobenzo[b]thiophene-3-carboxylate]?
**A.** non-specific activity on VIPR1 (VIPR1 activity with VIPR agonist in combination with Ib vs agonist alone) [2]: did not induce non-specific activity; also recorded: no potential non-specific activity on VIPR1; GLP-1R activity stimulated by GLP-1 in combination with compound vs GLP-1 alone (human GLP-1R; Ib 23.5 μM): significantly increased; insulin secretion, Ib in combination with GLP-1 vs GLP-1 alone (INS-1 832/13 cells; Ib 11.75 μM + GLP-1 0.18 μM): more than 2.5 fold; amount of insulin produced by Ib compared with vehicle control (INS-1 832/13 cells; Ib 11.75 μM alone): no significant difference
